The values below are quoted from earlier work in US6087327A (priority 1998, dated 2000).

The data set concerns neurotransmitter release process.

As to `Nc1ccncc1` [aminopyridine], the “reversal of inhibition produced by botulinum neurotoxin A” value is on record as “more effective”.
